Reference: patent publication US20260297085A1, “1 H-PYRROLO[2,3-B]PYRIDIN-4-YL]-2-OXOPYRROLIDINE-3-CARBONITRILE DERIVATIVES AS TYROSINE KINASE 2 (TYK2) INHIBITORS FOR THE TREATMENT OF INFLAMMATORY DISEASES” (BIOGEN MA INC., priority 2023, published 2026)
Structures can show the parent of a compound that is named as a salt.

How the values were obtained:
[1] = molecular target: T1, human TYK2 kinase domain (JH1) (Homo sapiens, UniProt P29597); assay: JH1 biochemical assay for TYK2 (ADP-Glo kinase assay, recombinant JH1 catalytic domain, JAK3-974 peptide, 10 μM ATP)
T1 construct: recombinantly generated catalytic kinase (also known as JH1) domain of human JAK1, JAK2, JAK3 and TYK2
T1 sequence (P29597 897-1176 limits assumed): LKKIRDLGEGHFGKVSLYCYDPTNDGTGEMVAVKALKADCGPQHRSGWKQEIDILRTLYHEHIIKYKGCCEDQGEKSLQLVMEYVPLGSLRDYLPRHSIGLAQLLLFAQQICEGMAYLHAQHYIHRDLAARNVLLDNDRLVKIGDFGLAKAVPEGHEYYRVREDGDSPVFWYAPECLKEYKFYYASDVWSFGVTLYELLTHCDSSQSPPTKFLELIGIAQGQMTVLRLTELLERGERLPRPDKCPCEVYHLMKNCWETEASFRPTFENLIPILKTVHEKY
Outline: (§1)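 Kinase 4 nM JAK1 / 0.2 nM JAK2 / 0.3 nM JAK3 / 2 nM TYK2; 50 μM peptide; 100 min. Unused ATP depleted, ADP→ATP, luciferase luminescence. 11-pt 3-fold series from 10 or 1 μM; normalized, 4PL fit → IC50.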

[2] = molecular target: T2, human JAK1 kinase domain (JH1) (Homo sapiens, UniProt P23458); assay: JH1 biochemical assay for JAK1 (ADP-Glo kinase assay, recombinant JH1 catalytic domain, JAK3-342 peptide, 35 μM ATP)
T2 construct: recombinantly generated catalytic kinase (also known as JH1) domain of human JAK1, JAK2, JAK3 and TYK2
T2 sequence (P23458 875-1153 limits assumed): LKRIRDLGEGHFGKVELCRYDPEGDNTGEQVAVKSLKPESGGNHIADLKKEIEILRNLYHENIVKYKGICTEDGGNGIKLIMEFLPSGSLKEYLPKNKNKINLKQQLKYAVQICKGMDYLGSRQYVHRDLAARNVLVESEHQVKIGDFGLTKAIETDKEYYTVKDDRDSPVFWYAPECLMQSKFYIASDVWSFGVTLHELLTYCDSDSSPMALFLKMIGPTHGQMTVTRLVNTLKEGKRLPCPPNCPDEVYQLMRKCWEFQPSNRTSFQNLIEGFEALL
Outline: as §1

[3] = molecular target: T3, human JAK2 kinase domain (JH1) (Homo sapiens, UniProt O60674); assay: JH1 biochemical assay for JAK2 (ADP-Glo kinase assay, recombinant JH1 catalytic domain, JAK3-974 peptide, 15 μM ATP)
T3 construct: recombinantly generated catalytic kinase (also known as JH1) domain of human JAK1, JAK2, JAK3 and TYK2
T3 sequence (O60674 849-1124 limits assumed): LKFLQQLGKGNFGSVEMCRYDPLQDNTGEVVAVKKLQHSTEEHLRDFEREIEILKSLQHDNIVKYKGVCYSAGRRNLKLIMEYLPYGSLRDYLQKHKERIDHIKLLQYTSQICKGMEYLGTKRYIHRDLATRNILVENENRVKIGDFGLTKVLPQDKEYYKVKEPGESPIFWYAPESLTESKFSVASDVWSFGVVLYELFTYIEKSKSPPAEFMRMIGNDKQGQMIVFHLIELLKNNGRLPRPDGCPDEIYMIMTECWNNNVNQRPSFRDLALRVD
Outline: as §1

[4] = molecular target: T4, human JAK3 kinase domain (JH1) (Homo sapiens, UniProt P52333); assay: JH1 biochemical assay for JAK3 (ADP-Glo kinase assay, recombinant JH1 catalytic domain, JAK3-974 peptide, 4 μM ATP)
T4 construct: recombinantly generated catalytic kinase (also known as JH1) domain of human JAK1, JAK2, JAK3 and TYK2
T4 sequence (P52333 822-1111 limits assumed): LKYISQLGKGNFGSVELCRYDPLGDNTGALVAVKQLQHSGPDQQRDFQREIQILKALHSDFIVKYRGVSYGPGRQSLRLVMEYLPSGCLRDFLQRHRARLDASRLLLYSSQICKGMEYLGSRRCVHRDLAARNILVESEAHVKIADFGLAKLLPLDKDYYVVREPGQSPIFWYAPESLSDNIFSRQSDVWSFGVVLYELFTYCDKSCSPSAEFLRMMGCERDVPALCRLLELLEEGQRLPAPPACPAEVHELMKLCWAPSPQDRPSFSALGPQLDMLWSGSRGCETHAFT
Outline: as §1

[5] = molecular target: Tyk2 kinase activity on STAT4 in NK92 cells (Homo sapiens, UniProt P29597); assay: pSTAT4 cell assay (MSD; NK92 cells, 30 ng/mL IL2 stimulation); assay type: cell-based; settings: 30 ng/mL IL2, 15 minutes
Chain of Tyk2 kinase activity on STAT4 in NK92 cells (P29597 whole entry): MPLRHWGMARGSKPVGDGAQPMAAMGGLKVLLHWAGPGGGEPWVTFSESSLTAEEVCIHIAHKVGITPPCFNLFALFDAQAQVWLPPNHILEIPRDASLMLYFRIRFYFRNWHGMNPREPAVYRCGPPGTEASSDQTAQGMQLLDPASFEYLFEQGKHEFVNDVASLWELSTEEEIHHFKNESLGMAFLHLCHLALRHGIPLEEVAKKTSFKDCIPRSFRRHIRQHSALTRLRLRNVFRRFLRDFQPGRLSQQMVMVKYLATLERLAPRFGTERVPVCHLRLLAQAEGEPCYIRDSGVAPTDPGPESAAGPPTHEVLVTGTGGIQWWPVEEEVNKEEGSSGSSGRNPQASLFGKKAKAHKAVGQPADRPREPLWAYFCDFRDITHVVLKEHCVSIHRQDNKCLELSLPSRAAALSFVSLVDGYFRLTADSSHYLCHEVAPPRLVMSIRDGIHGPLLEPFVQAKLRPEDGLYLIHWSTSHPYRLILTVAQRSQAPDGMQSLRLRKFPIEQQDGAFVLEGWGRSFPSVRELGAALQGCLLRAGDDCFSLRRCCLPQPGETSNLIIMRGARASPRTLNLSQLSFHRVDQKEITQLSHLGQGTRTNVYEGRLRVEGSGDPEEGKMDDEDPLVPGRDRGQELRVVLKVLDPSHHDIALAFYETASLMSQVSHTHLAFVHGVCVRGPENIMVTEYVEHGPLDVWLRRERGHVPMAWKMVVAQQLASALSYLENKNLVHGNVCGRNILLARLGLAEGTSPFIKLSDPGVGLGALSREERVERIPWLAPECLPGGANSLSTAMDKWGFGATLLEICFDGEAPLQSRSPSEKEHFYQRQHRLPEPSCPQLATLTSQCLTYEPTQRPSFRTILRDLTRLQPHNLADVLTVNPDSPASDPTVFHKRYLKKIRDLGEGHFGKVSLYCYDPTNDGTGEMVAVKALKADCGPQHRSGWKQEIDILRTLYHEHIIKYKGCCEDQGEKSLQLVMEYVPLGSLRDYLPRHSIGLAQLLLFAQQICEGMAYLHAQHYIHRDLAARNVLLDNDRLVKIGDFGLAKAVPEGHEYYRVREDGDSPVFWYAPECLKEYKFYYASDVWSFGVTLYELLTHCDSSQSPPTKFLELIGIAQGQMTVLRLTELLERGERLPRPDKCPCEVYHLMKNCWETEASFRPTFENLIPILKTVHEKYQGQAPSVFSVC
Outline: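 Compound treatment of starved NK92 cells ran 1 hr before a 15-minute, 30 ng/mL IL2 pulse; lysates went to an MSD anti-STAT4 antibody assay, with curves fitted by 4-parameter logistic model.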

[6] = molecular target: JAK2 kinase activity on STAT5 in TF1 cells (Homo sapiens, UniProt O60674); assay: pSTAT5 cell assay (MSD; TF1 cells, 30 ng/mL IL-3 stimulation); assay type: cell-based; settings: 30 ng/mL IL-3, 15 minutes
Chain of JAK2 kinase activity on STAT5 in TF1 cells (O60674 whole entry): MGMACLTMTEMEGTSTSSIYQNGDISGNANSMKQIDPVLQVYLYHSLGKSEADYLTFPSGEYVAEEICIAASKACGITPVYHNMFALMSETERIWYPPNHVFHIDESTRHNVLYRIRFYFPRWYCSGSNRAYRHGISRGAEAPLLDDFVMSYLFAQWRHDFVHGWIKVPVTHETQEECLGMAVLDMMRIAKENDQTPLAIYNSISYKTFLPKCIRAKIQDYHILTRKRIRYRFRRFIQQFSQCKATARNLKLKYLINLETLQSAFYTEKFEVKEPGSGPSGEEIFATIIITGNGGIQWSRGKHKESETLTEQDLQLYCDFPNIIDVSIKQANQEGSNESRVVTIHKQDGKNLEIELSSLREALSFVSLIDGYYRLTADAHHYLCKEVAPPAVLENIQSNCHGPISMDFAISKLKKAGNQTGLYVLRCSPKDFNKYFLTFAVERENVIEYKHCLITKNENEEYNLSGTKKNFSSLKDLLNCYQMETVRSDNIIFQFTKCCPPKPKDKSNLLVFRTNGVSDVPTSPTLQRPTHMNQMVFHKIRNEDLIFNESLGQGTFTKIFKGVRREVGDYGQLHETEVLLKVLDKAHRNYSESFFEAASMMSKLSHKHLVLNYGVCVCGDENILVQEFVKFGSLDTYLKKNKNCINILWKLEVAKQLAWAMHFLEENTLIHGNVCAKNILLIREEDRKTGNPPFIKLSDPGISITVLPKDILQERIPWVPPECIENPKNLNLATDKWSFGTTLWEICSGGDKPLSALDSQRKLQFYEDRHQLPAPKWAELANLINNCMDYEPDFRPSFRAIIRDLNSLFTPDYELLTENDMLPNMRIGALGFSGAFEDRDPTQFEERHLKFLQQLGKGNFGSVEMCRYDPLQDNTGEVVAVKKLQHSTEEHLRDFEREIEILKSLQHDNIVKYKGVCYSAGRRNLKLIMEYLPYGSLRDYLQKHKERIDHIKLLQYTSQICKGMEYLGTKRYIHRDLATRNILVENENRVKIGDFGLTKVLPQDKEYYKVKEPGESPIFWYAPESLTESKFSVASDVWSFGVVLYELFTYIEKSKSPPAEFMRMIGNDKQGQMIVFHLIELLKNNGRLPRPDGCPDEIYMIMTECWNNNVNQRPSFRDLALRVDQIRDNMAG
Outline: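 IC50 from a 4-parameter logistic fit of normalized pSTAT5 signal, measured by MSD in lysates of TF1 cells. Cells were serum-starved, exposed to compound for 1 h (top concentration 10 μM, four-fold, 10 points), then given IL-3 at 30 ng/mL for 15 min.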

[7] = molecular target: JAK1 kinase activity on STAT3 in TF1 cells (Homo sapiens, UniProt P23458); assay: pSTAT3 cell assay (MSD; TF1 cells, 30 ng/mL IL-6 stimulation); assay type: cell-based; settings: 30 ng/mL IL-6, 15 minutes
Chain of JAK1 kinase activity on STAT3 in TF1 cells (P23458 whole entry): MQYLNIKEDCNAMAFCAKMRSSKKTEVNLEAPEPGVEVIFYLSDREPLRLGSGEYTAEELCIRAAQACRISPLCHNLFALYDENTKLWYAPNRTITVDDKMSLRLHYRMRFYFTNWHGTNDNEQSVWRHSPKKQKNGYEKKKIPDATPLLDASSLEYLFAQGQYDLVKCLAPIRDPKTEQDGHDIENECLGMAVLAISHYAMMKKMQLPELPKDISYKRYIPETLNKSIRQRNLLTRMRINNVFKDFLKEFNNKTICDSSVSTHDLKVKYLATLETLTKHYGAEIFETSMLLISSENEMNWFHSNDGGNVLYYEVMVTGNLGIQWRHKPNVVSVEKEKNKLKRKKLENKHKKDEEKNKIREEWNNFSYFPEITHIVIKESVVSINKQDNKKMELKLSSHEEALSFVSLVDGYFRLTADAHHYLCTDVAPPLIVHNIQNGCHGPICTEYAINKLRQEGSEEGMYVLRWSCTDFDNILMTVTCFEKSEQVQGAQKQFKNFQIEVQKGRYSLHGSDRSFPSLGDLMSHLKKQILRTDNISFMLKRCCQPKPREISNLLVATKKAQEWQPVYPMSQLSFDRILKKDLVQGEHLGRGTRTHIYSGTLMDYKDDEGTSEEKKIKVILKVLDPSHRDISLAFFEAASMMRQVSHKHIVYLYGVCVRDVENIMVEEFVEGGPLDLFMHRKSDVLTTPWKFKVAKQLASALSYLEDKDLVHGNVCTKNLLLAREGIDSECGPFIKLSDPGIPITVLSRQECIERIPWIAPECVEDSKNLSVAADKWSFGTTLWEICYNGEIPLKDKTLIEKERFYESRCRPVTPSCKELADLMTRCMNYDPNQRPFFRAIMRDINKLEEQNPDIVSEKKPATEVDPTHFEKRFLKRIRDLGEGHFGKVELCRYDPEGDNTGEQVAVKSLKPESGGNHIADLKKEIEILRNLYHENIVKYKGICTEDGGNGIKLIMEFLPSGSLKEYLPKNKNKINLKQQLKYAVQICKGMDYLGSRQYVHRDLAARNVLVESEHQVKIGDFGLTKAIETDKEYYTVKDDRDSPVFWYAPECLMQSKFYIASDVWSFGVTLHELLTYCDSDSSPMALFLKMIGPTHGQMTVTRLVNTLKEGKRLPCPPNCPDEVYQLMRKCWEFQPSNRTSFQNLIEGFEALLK
Outline: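 IC50 values derive from 4-parameter logistic fits of normalized pSTAT3 signal, measured by MSD with anti-STAT3 antibodies. TF1 cells, serum-starved beforehand, received compound for 1 hour (top concentration 10 μM, four-fold steps, 10 points) before a 15-minute IL-6 (30 ng/mL) stimulus.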

Structure (SMILES) | IC50 ([1]; JH1 kinase domain, ADP-Glo) [nM] | IC50 ([2]; JH1 kinase domain, ADP-Glo) [nM] | IC50 ([3]; JH1 kinase domain, ADP-Glo) [nM] | IC50 ([4]; JH1 kinase domain, ADP-Glo) [nM] | IC50 [5] [nM] | IC50 [6] [nM] | IC50 [7] [nM] | IC50 ([1]; TYK2 JH1, ADP-Glo) [nM] | IC50 ([2]; JAK1 JH1, ADP-Glo) [nM] | IC50 ([3]; JAK2 JH1, ADP-Glo) [nM] | IC50 ([4]; JAK3 JH1, ADP-Glo) [nM]
C[C@@H]1CN(c2ccnn3cc(-c4cnn([C@H]5CC5(F)F)c4)cc23)C(=O)[C@]1(C#N)C1CC1 (single isomer, unassigned) [Example 156] | < 5 | 100 to 1000 | 100 to 1000 | < 100 | 50 to 100 | 1000 to 5000 | 1000 to 5000 |  |  |  | 
C[C@@H]1CN(c2nc(-c3cnn(C)c3)cn3ncc(F)c23)C(=O)[C@]1(C#N)C1CC1 [Example 187, (3R,4S)-3-cyclopropyl-1-(3-fluoro-6-(1-methyl-1H-pyrazol-4-yl)pyrazolo[1,5-a]pyrazin-4-yl)-4-methyl-2-oxopyrrolidine-3-carbonitrile] | < 5 | < 100 | 100 to 1000 | < 100 | 50 to 100 | 1000 to 5000 | 1000 to 5000 |  |  |  | 
C[C@@H]1CN(c2ccnn3cc(-c4cnn([C@H]5C[C@@](F)(C#N)C5)c4)cc23)C(=O)[C@]1(C#N)C1CC1 [Example 326, (3R,4S)-1-(6-(1-((1r,3R)-3-cyano-3-fluorocyclobutyl)-1H-pyrazol-4-yl)pyrrolo[1,2-b]pyridazin-4-yl)-3-cyclopropyl-4-methyl-2-oxopyrrolidine-3-carbonitrile] |  |  |  |  | > 100 | 1000 to 5000 | 1000 to 5000 | < 5 | < 100 | < 100 | < 100
C[C@@H]1CN(c2ccnn3cc(-c4cnn(C(F)F)c4)cc23)C(=O)[C@]1(C#N)C1CC1 [Example 35, (3R,4S)-3-cyclopropyl-1-(6-(1-(difluoromethyl)-1H-pyrazol-4-yl)pyrrolo[1,2-b]pyridazin-4-yl)-4-methyl-2-oxopyrrolidine-3-carbonitrile] | < 5 | 100 to 1000 | 100 to 1000 | 100 to 1000 | 20 to 50 | 5000 to 10000 | 1000 to 5000 |  |  |  | 
C[C@@H]1CN(c2nc(-c3cnn([C@H]4C[C@@](C)(C#N)C4)c3)cn3ncc(F)c23)C(=O)[C@]1(C#N)C1CC1 [Example 307, (3R,4S)-1-(6-(1-((1s,3S)-3-cyano-3-methylcyclobutyl)-1H-pyrazol-4-yl)-3-fluoropyrazolo[1,5-a]pyrazin-4-yl)-3-cyclopropyl-4-methyl-2-oxopyrrolidine-3-carbonitrile] |  |  |  |  | 50 to 100 | 1000 to 5000 | 100 to 1000 | < 5 | < 100 | < 100 | < 100
C[C@@H]1CN(c2ccnn3cc(-c4cnn(C5CCCCC5)c4)cc23)C(=O)[C@]1(C#N)C1CC1 [Example 169, (3R,4S)-1-(6-(1-cyclohexyl-1H-pyrazol-4-yl)pyrrolo[1,2-b]pyridazin-4-yl)-3-cyclopropyl-4-methyl-2-oxopyrrolidine-3-carbonitrile] | < 5 | < 100 | < 100 | < 100 | > 100 | 1000 to 5000 | 1000 to 5000 |  |  |  | 
C[C@@H]1CN(c2nc(-c3cnn(C45CC(C#N)(C4)C5)c3)cn3ncc(F)c23)C(=O)[C@]1(C#N)C1CC1 [Example 297, (3R,4S)-1-(6-(1-(3-cyanobicyclo[1.1.1]pentan-1-yl)-1H-pyrazol-4-yl)-3-fluoropyrazolo[1,5-a]pyrazin-4-yl)-3-cyclopropyl-4-methyl-2-oxopyrrolidine-3-carbonitrile] |  |  |  |  | > 100 | 1000 to 5000 | 1000 to 5000 | < 5 | < 100 | < 100 | < 100
CNC(=O)c1ccc(-c2cc3c(N4C[C@@H](C)[C@@](C#N)(C5CC5)C4=O)ccnn3c2)cn1 [Example 58, 5-(4-((3R,4S)-3-cyano-3-cyclopropyl-4-methyl-2-oxopyrrolidin-1-yl)pyrrolo[1,2-b]pyridazin-6-yl)-N-methylpicolinamide] | 5 to 20 | 100 to 1000 | 100 to 1000 | 100 to 1000 | 50 to 100 | > 10000 | 1000 to 5000 |  |  |  | 
COc1cccc(-c2cn3nccc3c(N3C[C@@H](C)[C@@](C#N)(C4CC4)C3=O)n2)n1 [Example 193, (3R,4S)-3-cyclopropyl-1-(6-(6-methoxypyridin-2-yl)pyrazolo[1,5-a]pyrazin-4-yl)-4-methyl-2-oxopyrrolidine-3-carbonitrile] | 5 to 20 | 100 to 1000 | > 10000 | > 10000 | > 100 | > 10000 | > 10000 |  |  |  | 
C[C@@H]1CN(c2ccnn3cc(-c4cnn(C5CN(C)C5)c4)cc23)C(=O)[C@]1(C#N)C1CC1 [Example 316, (3R,4S)-3-cyclopropyl-4-methyl-1-(6-(1-(1-methylazetidin-3-yl)-1H-pyrazol-4-yl)pyrrolo[1,2-b]pyridazin-4-yl)-2-oxopyrrolidine-3-carbonitrile] |  |  |  |  | 50 to 100 | 5000 to 10000 | 5000 to 10000 | < 5 | 100 to 1000 | 100 to 1000 | 100 to 1000
C[C@@H]1CN(c2ccnn3cc(-c4cnn(CC5(C#N)CC5)c4)cc23)C(=O)[C@]1(C#N)C1CC1 [Example 324, (3R,4S)-1-(6-(1-((1-cyanocyclopropyl)methyl)-1H-pyrazol-4-yl)pyrrolo[1,2-b]pyridazin-4-yl)-3-cyclopropyl-4-methyl-2-oxopyrrolidine-3-carbonitrile] |  |  |  |  | 50 to 100 | 100 to 1000 | 100 to 1000 | < 5 | < 100 | < 100 | < 100
C[C@@H]1CN(c2nc(-c3cnn(C)c3)cc3ncsc23)C(=O)[C@]1(C#N)C1CC1 [Example 284, (3R,4S)-3-cyclopropyl-4-methyl-1-(6-(1-methyl-1H-pyrazol-4-yl)thiazolo[5,4-c]pyridin-4-yl)-2-oxopyrrolidine-3-carbonitrile] |  |  |  |  | 5 to 20 | < 100 | < 100 | < 5 | < 100 | < 100 | < 100
Cc1nc(C)c(-c2cn3nccc3c(N3C[C@@H](C)[C@@](C#N)(C4CC4)C3=O)n2)s1 [Example 209, (3R,4S)-3-cyclopropyl-1-(6-(2,4-dimethylthiazol-5-yl)pyrazolo[1,5-a]pyrazin-4-yl)-4-methyl-2-oxopyrrolidine-3-carbonitrile] | 5 to 20 | < 100 | 100 to 1000 | < 100 | > 100 | 5000 to 10000 | 1000 to 5000 |  |  |  | 
C[C@@H]1CN(c2ccnn3cc(-c4cnn(C5CCCC5)c4)cc23)C(=O)[C@]1(C#N)C1CC1 [Example 170, (3R,4S)-1-(6-(1-cyclopentyl-1H-pyrazol-4-yl)pyrrolo[1,2-b]pyridazin-4-yl)-3-cyclopropyl-4-methyl-2-oxopyrrolidine-3-carbonitrile] | < 5 | < 100 | < 100 | < 100 | > 100 | 5000 to 10000 | 5000 to 10000 |  |  |  | 
CC(=O)Nc1cc(-c2cc3c(N4C[C@@H](C)[C@@](C#N)(C5CC5)C4=O)ccnn3c2)ccn1 [Example 61, N-(4-(4-((3R,4S)-3-cyano-3-cyclopropyl-4-methyl-2-oxopyrrolidin-1-yl)pyrrolo[1,2-b]pyridazin-6-yl)pyridin-2-yl)acetamide] | < 5 | < 100 | 100 to 1000 | 100 to 1000 | 20 to 50 | 5000 to 10000 | 100 to 1000 |  |  |  | 
C[C@@H]1CN(c2nc(-c3cnc4c(c3)OCC(=O)N4C)cn3nccc23)C(=O)[C@]1(C#N)C1CC1 [Example 235, (3R,4S)-3-cyclopropyl-4-methyl-1-(6-(4-methyl-3-oxo-3,4-dihydro-2H-pyrido[3,2-b][1,4]oxazin-7-yl)pyrazolo[1,5-a]pyrazin-4-yl)-2-oxopyrrolidine-3-carbonitrile trifluoroacetate] |  |  |  |  | > 100 | > 10000 | > 10000 | < 5 | < 100 | 100 to 1000 | 100 to 1000
